Reference: patent US6054591A, “Lymph-absorbable aryl substituted imidazole derivatives” (Shionogi & Co., Ltd., priority 1996, dated 2000)
Values after ≈ are worked out from the molar mass of the structure shown.

tested on: HIV (HTLV-IIIB strain); test: Infection inhibitory activity (anti-HIV activity, MTT assay in MT-4 cells); format: cell-based; details: Human immunodeficiency virus 1, IIIB, MT4, 120 h
Protocol: Infection inhibitory activity of the compound
The anti-HIV activity of the representative compounds prepared in the above examples was assayed by the following procedures.
Human T cell line MOLT-4 clone 8 persistently infected by HIV (HTLV-IIIB strain) was cultured in an RPMI-1640 medium supplemented with 10% fetal calf serum, the culture supernatant was filtered, the titer of virus was determined on the filtrate, and the culture supernatant was stored at -80° C. On the other hand, the test compound was diluted with the above culture medium to predetermined concentration range 1 μg/ml to 1 ng/ml and distributed in 50 μl aliquots into a 96-well microtiter plate. Then, a suspension of MT-4 cells was added in 100 μl aliquots (3.5×10^4 cells per well) and then 50 μl (60 pfu (plaque forming units)) per well of the above HIV-containing supernatant diluted with the above culture medium each was added.
The plate was incubated in a CO2 incubator at 37° C. for 5 days. Then, 30 μl/well of 3-(4,5-dimethylthiazol-2-yl)-2,5-[…] (MTT) and 5 mg/ml PBS was added and the incubation was further continued for 1 hour. The surviving cells reducing MTT yield precipitation of formazan. Therefore, 150 μl portions of the culture supernatant were removed from all wells and, instead, 150 μl of a solution (10% Triton X-100 and 0.4% (v/v) HCl added isopropanol) was added. The plate was shaken on a plate mixer to dissolve the formazan. The OD of formazan was measured with a microreader at 560 nm and 690 nm (reference wavelength) and the result was compared with that of control. The cytotoxic effect for the virus was expressed as EC50.

| SMILES | EC50 [ng/mL] |
| --- | --- |
| CC(C)c1nc(COC(=O)NC(=O)Oc2cccc3ccccc23)n(Cc2ccncc2)c1Sc1cc(Cl)cc(Cl)c1 [Compound 104, 5-(3,5-Dichlorophenylthio)-4-isopropyl-1-(4-pyridylmethyl)-1H-imidazol-2-ylmethyl 1-naphthyl iminodicaboxylate] | < 8 |
| CC(C)c1nc(COC(=O)NC(=O)Oc2ccc(-c3ccccc3)cc2)n(Cc2ccncc2)c1Sc1cc(Cl)cc(Cl)c1 [Compound 103, 5-(3,5-Dichlorophenylthio)-4-isopropyl-1-(4-pyridylmethyl)-1H-imidazol-2-ylmethyl 4-biphenyl iminodicaboxylate] | 8 (≈ 0.0124 µM) |

same assay, conditions: Human immunodeficiency virus 1, MT4, 120 h; MT-4 cells, HIV HTLV-IIIB, 5 days at 37° C., MTT; read-out: EC50

| EC50 [ng/mL] | SMILES |
| --- | --- |
| 1 (≈ 0.00232 µM) | CCn1c(COC(=O)NC(C)=O)nc(C(C)C)c1Sc1cc(Cl)cc(Cl)c1 [Compound 80, 5-(3,5-Dichlorophenylthio)-1-ethyl-4-isopropyl-1H-imidazol-2-ylmethyl acetylcarbamate] |
| < 8 | CC(=O)NC(=O)OCc1nc(C(C)C)c(Sc2cc(Cl)cc(Cl)c2)n1Cc1ccncc1 [Compound 90, 5-(3,5-Dichlorophenylthio)-4-isopropyl-1-(4-pyridylmethyl)-1H-imidazol-2-ylmethyl acetylcarbamate] |
| 8 (≈ 0.0152 µM) | CCn1c(COC(=O)NC(=O)c2ccc(Cl)cc2)nc(C(C)C)c1Sc1cc(Cl)cc(Cl)c1 [Compound 86, 5-(3,5-Dichlorophenylthio)-1-ethyl-4-isopropyl-1H-imidazol-2-ylmethyl 4-chlorobenzoylcarbamate] |
| 8 to 16 (≈ 0.0139 to 0.0277 µM) | CCCCCCCC(=O)NC(=O)OCc1nc(C(C)C)c(Sc2cc(Cl)cc(Cl)c2)n1Cc1ccncc1 [Compound 91, 5-(3,5-Dichlorophenylthio)-4-isopropyl-1-(4-pyridylmethyl)-1H-imidazol-2-ylmethyl octanoylcarbamate] |
| 8 (≈ 0.017 µM) | CCCCCCCC(=O)OCc1nc(C(C)C)c(Sc2cc(Cl)cc(Cl)c2)n1CC [Compound 108, 5-(3,5-Dichlorophenylthio)-1-ethyl-4-isopropyl-1H-imidazol-2-ylmethyl octanoate] |
| 8 (≈ 0.0143 µM) | CCn1c(COC(=O)NC(=O)c2cc(Cl)cc(Cl)c2)nc(C(C)C)c1Sc1cc(Cl)cc(Cl)c1 [Compound 87, 5-(3,5-Dichlorophenylthio)-1-ethyl-4-isopropyl-1H-imidazol-2-ylmethyl 3,5-dichlorobenzoylcarbamate] |
| 3 to 5 (≈ 0.00454 to 0.00757 µM) | CC(C)c1nc(COC(=O)NCN(Cc2ccccc2)Cc2ccccc2)n(Cc2ccncc2)c1Sc1cc(Cl)cc(Cl)c1 [Compound 114, 5-(3,5-Dichlorophenylthio)-4-isopropyl-1-(4-pyridylmethyl)-1H-imidazol-2-ylmethyl dibenzylaminomethylcarbamate] |
| 8 to 16 (≈ 0.016 to 0.032 µM) | CCCCCCCCCC(=O)OCc1nc(C(C)C)c(Sc2cc(Cl)cc(Cl)c2)n1CC [Compound 109, 5-(3,5-Dichlorophenylthio)-1-ethyl-4-isopropyl-1H-imidazol-2-ylmethyl decanoate] |
| 3 to 5 (≈ 0.00545 to 0.00908 µM) | CC(C)c1nc(COC(=O)NCN2CCOCC2)n(Cc2ccncc2)c1Sc1cc(Cl)cc(Cl)c1 [Compound 113, 5-(3,5-Dichlorophenylthio)-4-isopropyl-1-(4-pyridylmethyl)-1H-imidazol-2-ylmethyl morpholinomethylcarbamate] |
| < 8 | CCCCCCCCCC(=O)NC(=O)OCc1nc(C(C)C)c(Sc2cc(Cl)cc(Cl)c2)n1Cc1ccncc1 [Compound 92, 5-(3,5-Dichlorophenylthio)-4-isopropyl-1-(4-pyridylmethyl)-1H-imidazol-2-ylmethyl decanoylcarbamate] |
| 8 to 16 (≈ 0.0155 to 0.0311 µM) | CCCCCCCC(=O)NC(=O)OCc1nc(C(C)C)c(Sc2cc(Cl)cc(Cl)c2)n1CC [Compound 82, 5-(3,5-Dichlorophenylthio)-1-ethyl-4-isopropyl-1H-imidazol-2-ylmethyl octanoylcarbamate] |
| 3 (≈ 0.00506 µM) | CCCCN(CCCC)CNC(=O)OCc1nc(C(C)C)c(Sc2cc(Cl)cc(Cl)c2)n1Cc1ccncc1 [Compound 112, 5-(3,5-Dichlorophenylthio)-4-isopropyl-1-(4-pyridylmethyl)-1H-imidazol-2-ylmethyl di-n-butylaminomethylcarbamate] |
| 2 (≈ 0.00557 µM) | CCn1c(CCO)nc(C(C)C)c1Sc1cc(Cl)cc(Cl)c1 [Compound 54] |

Continued, compound first:

| SMILES | EC50 [ng/mL] |
| --- | --- |
| Cc1nc(C(C)C)c(Sc2cc(Cl)cc(Cl)c2)n1COCCO [Compound 8, 5-(3,5-Dichlorophenylthio)-4-isopropyl-1-[2-hydroxyethoxymethyl]-2-methyl-1H-imidazole] | 5 (≈ 0.0133 µM) |
| CCn1c(CO)nc(C(C)C)c1Sc1cc(Cl)cc(Cl)c1 [Compound 19, 2-hydroxymethyl-5-(3,5-dichlorophenylthio)-4-isopropyl-1-ethyl-1H-imidazole] | 4 (≈ 0.0116 µM) |
| Cc1cc(C)cc(Sc2c(C(C)C)nc(C)n2COCCOC(=O)CCC(=O)O)c1 [Compound 68, Mono-{2-[5-(3,5-dimethylphenylthio)-4-isopropyl-2-methyl-imidazol-1-yl]methoxyethyl}succinate] | 8 |
| CC(C)c1nc(COC(N)=O)n(Cc2ccncc2)c1Sc1cc(Cl)cc(Cl)c1 [Compound 111, 5-(3,5-dichlorophenylthio)-4-isopropyl-1-(4-pyridylmethyl)-1H-imidazol-2-ylmethyl carbamate] | 0.9 (≈ 0.00199 µM) |
| Cc1nc(C(C)C)c(Sc2cc(Cl)cc(Cl)c2)n1COCCOC1=CCCCCCC1 [Compound 11, 1-[2-(Cycloocten-1-yloxy)ethoxymethyl]-5-(3,5-dichlorophenylthio)-4-isopropyl-2-methyl-1H-imidazole] | 8 (≈ 0.0165 µM) |
| CC(C)c1nc(CO)n(C)c1Sc1cc(Cl)cc(Cl)c1 [Compound 14, 5-(3,5-dichlorophenylthio)-4-isopropyl-1-methyl-2-hydroxymethyl-1H-imidazole] | 16 (≈ 0.0483 µM) |
| Cc1cc(C)cc(Sc2c(C(C)C)nc(C)n2COCCO)c1 [Compound 1, 5-(3,5-dimethylphenylthio)-4-isopropyl-1-(2-hydroxyethoxymethyl)-2-methyl-1H-imidazole] | 8 (≈ 0.0239 µM) |
| CCn1c(CCOC2=CCCCCCC2)nc(C(C)C)c1Sc1cc(Cl)cc(Cl)c1 [Compound 59] | 2.5 to 5 (≈ 0.00535 to 0.0107 µM) |
| Cc1nc(C(C)C)c(Sc2cc(Cl)cc(Cl)c2)n1COCCOC(=O)CCC(=O)O [Compound 76, Mono-{2-[5-(3,5-dichlorophenylthio)-4-isopropyl-2-methyl-imidazol-1-ylmethoxy]ethyl succinate] | 8 |
| Cc1nc(C(C)C)c(Sc2cc(Cl)cc(Cl)c2)n1COCCOC(=O)CCCCCCCCCCCCCCC(=O)O [Compound 75, Mono-{2-[5-(3,5-dichlorophenylthio)-4-isopropyl-2-methyl-imidazol-1-ylmethoxy]ethyl} hexadecanedioate] | 8 (≈ 0.0124 µM) |
| Cc1nc(C(C)C)c(Sc2cc(Cl)cc(Cl)c2)n1COCCOCOC(=O)C(C)(C)C [Compound 77, 2-[5-(3,5-Dichlorophenylthio)-4-isopropyl-2-methyl-imidazol-1-ylmethoxy]ethyl 2,2-dimethylpropionyloxymethyl ether] | 8 (≈ 0.0163 µM) |
